Measured values from patent publication US10738101B2, “Method for selecting odor-controlling substance” (Kao Corporation, priority 2015, dated 2020).

Experiments:
OR9Q2 = biological target: T1, OR9Q2 (Homo sapiens, UniProt Q8NGE9); test: Luciferase reporter gene assay, OR9Q2-expressing HEK293 cells; assay type: cell-based; conditions: FIG. 2, 5B, 5C
T1 construct: expressed in transfected cells; host or cells: HEK293
T1 sequence (Q8NGE9 1-314): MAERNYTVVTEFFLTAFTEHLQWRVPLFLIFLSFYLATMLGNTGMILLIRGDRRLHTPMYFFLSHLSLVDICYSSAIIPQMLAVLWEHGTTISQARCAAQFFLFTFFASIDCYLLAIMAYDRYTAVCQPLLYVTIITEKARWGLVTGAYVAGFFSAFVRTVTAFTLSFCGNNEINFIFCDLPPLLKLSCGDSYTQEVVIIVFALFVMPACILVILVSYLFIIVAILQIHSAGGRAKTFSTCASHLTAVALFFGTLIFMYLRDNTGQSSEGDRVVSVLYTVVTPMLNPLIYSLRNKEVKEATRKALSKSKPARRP
Text: (§1) On the basis of sequence information registered in GenBank, genes respectively encoding 370 human olfactory receptors shown in Tables 1-1 and 1-2 and genes respectively encoding the human olfactory receptors OR5AN1, OR10G4 and OR9Q2 (respectively set forth in SEQ ID NOS: 1, 3 and 5) were cloned. Each of the genes was cloned by the PCR using human genomic DNA person (G1521: Promega) as a template. Each gene amplified by the PCR was incorporated into a pENTR vector (Invitrogen) in accordance with the instruction, and was recombined to NotI and AscI sites produced downstream from a Flag-Rho tag sequence on a pME18S vector by using NotI and AscI sites present on the pENTR vector.
(§2) In 1) of Example 1, HEK293 cells on which the 370 human olfactory receptors were respectively expressed were produced. A reaction solution having a composition shown in Table 2 was prepared and allowed to stand still in a clean bench for 15 minutes, and the resultant was added by 4.4 μL per well in a 384-well plate (BioCoat). Subsequently, the HEK293 cells (20×10^4 cells/cm^2) were seeded by 40 μL per well, and the resultant was cultured for 24 hours in an incubator kept at 37° C. and 5% CO2.
(§3) In 2) of Example 1 and Examples 2 and 3, HEK293 cells in which the human olfactory receptor OR5AN1, OR10G4, OR9Q2 or OR1A1 was expressed were produced. A reaction solution having a composition shown in Table 3 was prepared and allowed to stand still in a clean bench for 15 minutes, and the resultant was added by 10 μL per well in a 96-well plate (BioCoat). Subsequently, the HEK293 cells (3×10^5 cells/cm^2) were seeded by 90 μL per well, and the resultant was cultured for 24 hours in an incubator kept at 37° C. and 5% CO2. Cells obtained under conditions for not expressing the olfactory receptor (Mock) were also prepared to be used as a control, and were used similarly in an experiment.
(§4) The olfactory receptor expressed on the HEK293 cells increases the intracellular cAMP amount by activating adenylate cyclase in conjugation with intracellular Gαs. In the measurement of odor response in this study, luciferase reporter gene assay for monitoring the increase of the intracellular cAMP amount as a luminescence value derived from a firefly luciferase gene (fluc2P-CRE-hygro) was employed. Besides, a fused Renilla luciferase (hRluc-CMV) gene was simultaneously transferred downstream of the CMV promoter, so as to be used as an internal standard for correcting the gene transfer efficiency or an error in the number of cells. For measuring the activity of the luciferase, Dual-Glo(™) Luciferase Assay System (Promega) was used, and the measurement was performed in accordance with the operation instruction of the product. Under each of various stimulation conditions, a value fLuc/hRluc obtained by dividing a firefly luciferase-derived luminescence value by a Renilla luciferase-derived luminescence value was calculated. A value obtained by dividing a value fLuc/hRluc induced by stimulation with an odorous substance by a value fLuc/hRluc of a cell not stimulated with the odorous substance was obtained as fold increase, which was used as an index of the response intensity. A dose-response curve was analyzed using Graph Pad Prism.
(§5) The medium was removed from each of the cultures of the olfactory receptor expressing cells produced according to Reference Example 1, and an odorous substance (muscone, guaiacol or p-cresol) was added thereto. A DMEM medium (Nacalai) containing muscone or guaiacol was added to a 384-well plate containing the culture by 30 μL per well (to a final concentration of muscone of 100 μM and of guaiacol of 1 mM). Alternatively, a CD293 medium (Invitrogen) containing p-cresol was added to a 96-well plate containing the culture by 75 μL per well (to a final concentration of 1 mM). […]

[1] = system: odor of p-methyl quinoline; test: Sensory test of cross-adaptation, target odor p-methyl quinoline; assay type: in vivo, human; conditions: panelists
OR1A1 = biological target: T2, OR1A1 (Homo sapiens, UniProt Q9P1Q5); test: Luciferase reporter gene assay, OR1A1-expressing HEK293 cells; assay type: cell-based; conditions: screen, muscone 100 μM, FIG. 1
T2 construct: expressed in transfected cells; host or cells: HEK293
T2 sequence (Q9P1Q5 1-309): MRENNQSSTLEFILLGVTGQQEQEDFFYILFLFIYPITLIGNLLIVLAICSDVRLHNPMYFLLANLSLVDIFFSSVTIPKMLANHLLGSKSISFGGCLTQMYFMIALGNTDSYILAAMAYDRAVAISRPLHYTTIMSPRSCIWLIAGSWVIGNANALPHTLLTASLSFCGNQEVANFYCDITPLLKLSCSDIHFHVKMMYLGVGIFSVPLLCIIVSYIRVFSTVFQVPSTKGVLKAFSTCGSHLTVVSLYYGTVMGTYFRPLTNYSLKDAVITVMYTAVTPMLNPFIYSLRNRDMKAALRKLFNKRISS
Text: as §1, §2
In 2) of Example 1 and Examples 2 and 3, HEK293 cells in which the human olfactory receptor OR5AN1, OR10G4, OR9Q2 or OR1A1 was expressed were produced. […]
The olfactory receptor expressed on the HEK293 cells increases the intracellular cAMP amount by activating adenylate cyclase in conjugation with intracellular Gαs. In the measurement of odor response in this study, luciferase reporter gene assay for monitoring the increase of the intracellular cAMP amount as a luminescence value derived from a firefly luciferase gene (fluc2P-CRE-hygro) was employed. […] Under each of various stimulation conditions, a value fLuc/hRluc obtained by dividing a firefly luciferase-derived luminescence value by a Renilla luciferase-derived luminescence value was calculated. […] A dose-response curve was analyzed using Graph Pad Prism. […]

OR5AN1 = biological target: T3, OR5AN1 (Homo sapiens, UniProt Q8NGI8); test: Luciferase reporter gene assay, OR5AN1-expressing HEK293 cells; assay type: cell-based
T3 construct: expressed in transfected cells; host or cells: HEK293
T3 sequence (Q8NGI8 1-311): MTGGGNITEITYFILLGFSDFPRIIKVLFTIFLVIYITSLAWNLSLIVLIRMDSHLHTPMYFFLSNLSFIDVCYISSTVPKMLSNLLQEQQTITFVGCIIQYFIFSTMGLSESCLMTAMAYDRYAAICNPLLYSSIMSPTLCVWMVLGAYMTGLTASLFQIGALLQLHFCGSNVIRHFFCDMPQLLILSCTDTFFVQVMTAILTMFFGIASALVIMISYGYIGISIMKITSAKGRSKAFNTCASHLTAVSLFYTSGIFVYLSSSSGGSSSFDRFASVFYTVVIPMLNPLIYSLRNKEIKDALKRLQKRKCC
Text: as §1, §2, §3, §4, §5

SMILES: C[C@@H]1CCCCCCCCCCCCC(=O)C1 [muscone, (R)-3-methyl-1-cyclopentadecanone]
- responsiveness of OR9Q2 (fold increase) (OR9Q2): do not have responsiveness
- cross-adaptation of p-methyl quinoline odor induced by test substance [1]: did not induce the cross-adaptation
- responsiveness of OR1A1 compared with OR5AN1 (OR1A1): weaker responsiveness
- activation of OR5AN1 response (fold increase) (OR5AN1; 0.3 μM to 100 μM, vs Mock cells, FIG. 3): activating the response
- responsiveness of OR5AN1 among 370 olfactory receptors (response intensity, fold increase) (OR5AN1; screen of 370 human olfactory receptors, muscone 100 μM, FIG. 1): highest responsiveness
